Two compounds from ChEMBL document CHEMBL4507314 (2021) can be followed below.

Usually IC50 stands for the midpoint of a concentration-inhibition curve.

For test [1], the target named is Mitogen-activated protein kinase 14 (Homo sapiens, UniProt Q16539). Description: NanoBRET (MAPK14). On the technique in general: Bioluminescence resonance energy transfer reports proximity on the nanometre scale.
For test [2], the target named is Mitogen-activated protein kinase 11 (Homo sapiens, UniProt Q15759). The test is described as follows: NanoBRET (MAPK11).
Chain of Mitogen-activated protein kinase 11 (Q15759 whole entry): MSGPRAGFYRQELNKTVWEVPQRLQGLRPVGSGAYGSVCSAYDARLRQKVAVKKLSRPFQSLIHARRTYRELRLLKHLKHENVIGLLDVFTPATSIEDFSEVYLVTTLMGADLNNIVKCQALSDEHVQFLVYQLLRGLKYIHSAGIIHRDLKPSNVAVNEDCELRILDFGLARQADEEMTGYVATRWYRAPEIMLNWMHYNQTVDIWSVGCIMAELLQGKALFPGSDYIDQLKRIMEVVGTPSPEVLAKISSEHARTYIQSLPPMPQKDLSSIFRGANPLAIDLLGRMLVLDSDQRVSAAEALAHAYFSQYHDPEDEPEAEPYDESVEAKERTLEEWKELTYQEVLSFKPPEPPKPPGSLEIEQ
For test [3], the target named is Heat shock protein beta-1 (Homo sapiens, UniProt P04792). The test is described as follows: Inhibition of HSP27 (Ser82) (Western blot). A general note: A western blot detects proteins with antibodies after separation by electrophoresis.
Chain of Heat shock protein beta-1 (P04792 whole entry): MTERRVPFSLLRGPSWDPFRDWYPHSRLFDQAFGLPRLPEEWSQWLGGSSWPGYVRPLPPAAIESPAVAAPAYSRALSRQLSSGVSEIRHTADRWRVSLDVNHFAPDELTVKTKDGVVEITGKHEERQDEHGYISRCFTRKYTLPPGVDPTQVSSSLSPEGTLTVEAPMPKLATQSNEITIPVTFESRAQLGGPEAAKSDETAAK

Structures are written as SMILES. The source made the active and inactive calls. No cut-off for these calls is given here. Some results are limits rather than exact numbers.

Chain of Mitogen-activated protein kinase 14 (Q16539 whole entry): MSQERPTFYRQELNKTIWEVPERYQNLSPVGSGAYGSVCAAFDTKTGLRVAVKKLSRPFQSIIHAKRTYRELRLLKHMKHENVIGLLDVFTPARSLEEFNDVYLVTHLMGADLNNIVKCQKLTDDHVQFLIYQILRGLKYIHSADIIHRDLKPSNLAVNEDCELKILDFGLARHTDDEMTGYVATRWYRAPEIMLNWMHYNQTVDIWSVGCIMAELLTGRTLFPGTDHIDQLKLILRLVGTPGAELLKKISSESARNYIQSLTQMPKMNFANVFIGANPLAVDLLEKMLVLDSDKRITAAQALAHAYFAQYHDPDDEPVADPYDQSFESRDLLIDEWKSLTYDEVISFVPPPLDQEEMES

`CN(C(=O)c1ccccc1)c1cc(N(C)c2ccc3c(c2)CCc2ccc(C(=O)NCCN4CCOCC4)cc2C3=O)ccc1F` [FM-743]: the IC50 in test [1] is reported as 11.3 µM (not active); in test [2], 16.2 µM (not active).

Regarding `O=C(NCCN1CCOCC1)c1ccc2c(c1)C(=O)c1ccc(Nc3ccc(F)c(NC(=O)c4ccccc4)c3)cc1CC2` [FS-694], the IC50 in test [3] was < 1 µM (active); in test [2], 0.0169 µM (active).
